The IC50 is the concentration that gives 50% inhibition.

Read-outs that look alike come from different tables or passages of the source.

The values below come from US20040014676A1, “SRC kinase inhibitors useful for treating osteoporosis” (priority 2001, published 2004).

This assay addresses T1, Src kinase (Homo sapiens, UniProt P12931).
T1 construct: purchased Upstate Bioteolnology (sic; Upstate Biotechnology); later HMR stock 27597-019E1 #14-117
Nature of the assay: Phosphorylation assay of Src kinase inhibitors (radiometric, 96 well filter plate). In kind it is biochemical. The settings on record: tested in the range of 400-0.098 µM, 10 µM peptide substrate (FIYGAFKKKKNH2), 5 µM unlabeled ATP, room temperature 30 min. As for the experimental part:
The present invention provides novel compounds of Formulae I through XVIII discussed above. The following compounds which fall within Formulae I through XVIII are characterized by structure, IUPAC name and activity using phosphorylation assay for protein tyrosine Src kinase.
Phosphorylation Assay of Src Kinase Inhibitors
The activity of Src kinase was measured in a 96 well plate phosphorylation assay where the transfer of gamma phosphate from ATP to peptide substrate was measured radiometrically. […] Ki values were determined experimentally for some of the inhibitors. The phosphocellulose filter plates (Millipore catalog #MAPH NOB) were prewet prior to the phosphorylation assay by addition of 100 1 per well of 30 mM MES buffer+0.4 mg/ml BSA. After a 20-minute incubation, the buffer was removed completely via a Millipore vacuum manifold. The phosphorylation assay was then set up in the filter plates in a total volume per well of 60 1. The 60 1 consisted of compound (see concentration ranges above), a 1:100 dilution of Src kinase (originally Upstate Bioteolnology, #14-117; later HMR stock 27597-019E1) or assay buffer alone (for no enzyme control wells), 10 M peptide substrate (FIYGAFKKKKNH2), 5 M unlabeled ATP and a 1:500 dilution of P-ATP (New England Nuclear, catalog #NEG-602H, 2000 Ci/mmol). The reaction was mixed and incubated at room temperature for 30 min. The kinase reactions were stopped by addition of 150 mM H3PO4 and incubated for 10 minutes. The filter plate wells were filtered and washed seven times with 200 1 per well of 150 mM H3PO4. Finally, the filter plate was placed into a Packard plate adapter (Packard catalog #600517B), 35 1 of Microscint-20 (Packard catalog #6013621) was added to each well, the plate was sealed (TopSeal A sealers; Packard catalog #6005185) and counted on a Packard TopCount.

For `CC(NC(=O)c1cc2ccccc2cc1OCCCCNC(=O)[C@@H](N)Cc1ccc(O)cc1)C(N)=O` (stereo partly drawn) [Example 9, 3-[4-[[2(S)-AMINO-3-(4-HYDROXY- PHENYL)-1-OXOPROPYL]AMINO]- BUTOXY]-NAPHTHALENE-2-N-[(1- AMIDO)ETHYL]CARBOXAMIDE], for the setting “duplicates, read-out: IC50”, the IC50 was determined as 25 µM.

With `NC(=O)CNC(=O)c1cc2ccccc2cc1OCCCCNC(=O)[C@@H](N)Cc1cccc(F)c1` [Example 59, 3-[4-[[[2(S)-AMINO-3-(3-FLUORO- PHENYL)-1-OXO]PROPYL]AMINO]- BUTOXY]-NAPHTHALENE-2-(N- ACETAMIDO)CARBOXAMIDE], the IC50 (duplicates, read-out: IC50) was 0.49 µM. On the same count and under the same terms, with `NC(=O)CNC(=O)c1cc2ccccc2cc1OCCCCNC(=O)[C@@H](N)Cc1ccc(-c2ccccc2)cc1` [Example 38, 3-[[4-[[2(S)-AMINO-3-(BIPHEN-1-YL)-1- OXO]PROPYL]AMINO]BUTOXY]- NAPHTHALENE-2-(N- ACETAMIDO)CARBOXAMIDE] the figure was 30 µM. On to `NC(=O)CNC(=O)c1cc2ccccc2cc1NC(=O)CCCNC(=O)[C@@H](N)Cc1ccc(O)cc1` [Example 34, 3-[[[[[[2(S)-AMINO-3-(4-HYDROXY- PHENYL)-1-OXO]PROPYL]AMINO]- PROPYL]CARBONYL] AMINO]- NAPHTHALENE-2-(N-ACETAMIDO)- CARBOXAMIDE], for which the 50% inhibitory concentration (IC50) (duplicates, read-out: IC50) was 252 µM. `NC(=O)CNC(=O)c1cc2ccccc2cc1OCCNC(=O)[C@@H](N)Cc1ccc(O)cc1` [Example 92, 3-[2-[[[1-OXO-2(S)-AMINO-3-HYDROXY- PHENYL)]PROPYL]AMINO]ETHOXY]NAPHTHALENE-2-(N-] displayed an IC50 (IC50, duplicates) of 3.4 µM. In the case of `NC(=O)CNC(=O)c1cc2cc(Br)ccc2c(Br)c1OCCCCNC(=O)[C@@H](N)Cc1ccc(O)cc1` [Example 105, 1,6-DIBROMO-2-[[4-[[1-OXO-2(S)- AMINO-3-(4-HYDROXYPHENYL)]- PROPYL]AMINO]BUTOXY]- NAPHTHALENE-3-(N-ACETAMIDO)- CARBOXAMIDE], under “duplicates, read-out: IC50”, the IC50 stood at 20 µM. For the molecule `N[C@@H](Cc1ccc(O)cc1)C(=O)NCCCCOc1cc2ccccc2cc1C(=O)NCCO` [Example 101, 3-[[4-[[1-OXO-2(S)-AMINO-3-(4- HYDROXYPHENYL)]PROPYL]AMINO]- BUTOXY]NAPHTHALENE-2-[N- (2-HYDROXYETHYL)]CARBOXAMIDE], the concentration for half-maximal inhibition (IC50) (duplicates, read-out: IC50) was 15 µM. Regarding `NC(=O)CNC(=O)c1cc2ccccc2cc1OCCCCNC(=O)[C@@H](N)Cc1ccccn1` [Example 47, 3-[[4-[[2(S)-AMINO-3(PYRIDIN-2-YL)-1- OXO]PROPYL]AMINO]BUTOXY]- NAPHTHALENE-2-(N-ACETAMIDO)- CARBOXAMIDE], the IC50 (duplicates, read-out: IC50) is 17 µM. On to `NC(=O)CNC(=O)[C@@H](Cc1ccccc1)NCCCCCNC(=O)[C@H](N)Cc1csc2ccccc12` [Example 80, N-[((R)BENZYL)[(AMINO)(CARBONYL) (METHYL)(AMINO)(CARBONYL)]- METHYL]-5-[[N-[1-OXO-2- AMINO-3-(R)(BENZOTHIOPHEN-3-YL)]PROPYL]AMINO]PENTYLAMINE], for which the IC50 (duplicates, read-out: IC50) amounted to 6 µM. Regarding `NC(=O)CNC(=O)c1cc2ccccc2cc1OCCCCN1CCNC(Cc2ccccc2)C1=O` (stereo in doubt) [Example 30, 3-[4-[(2-OXO-3-(R)-BENZYL)- PIPERAZIN-1-YL]BUTOXY]- NAPHTHALENE-2-(N- ACETAMIDO)CARBOXAMIDE], the concentration for half-maximal inhibition (IC50) (duplicates, read-out: IC50) was 8.8 µM. Consider `NC(=O)CNC(=O)c1cc2ccccc2cc1NC(=O)CCCNC(=O)[C@@H](N)Cc1ccc(O)cc1` [Example 90, 3-[[[3-[[[1-OXO-2(S)-AMINO-3- HYDROXYPHENYL)]PROPYL]AMINO]- PROPYL]CARBONYL]AMINO]- NAPHTHALENE-2-ACETAMIDO)- CARBOXAMID], for which the IC50 (duplicates, read-out: IC50) is 209 µM. With `NC(=O)CNC(=O)[C@H](Cc1ccccc1)NCCCCCNC(=O)[C@H](N)Cc1csc2ccccc12` [Example 81, N-[((S)BENZYL)[(AMINO)(CARBONYL)- (METHYL)(AMINO)(CARBONYL)]- METHYL]-5-[[N-[1-OXO-2-AMINO-3- (R)(BENZOTHIOPHEN-3- YL)]PROPYL]AMINO]PENTYLAMINE], for the setting “duplicates, read-out: IC50”, the IC50 came to 6 µM. Take `C[C@@H](NC(=O)c1cc2ccccc2cc1OCCCCNC(=O)[C@H](N)Cc1ccc(O)cc1)C(N)=O` (stereo in doubt) [Example 122, 2-[[4-[[1-OXO-2-AMINO-3-(4-HYDROXY- PHENYL)]PROPYL]AMINO] BUTOXY]- NAPHTHALENE-3-[N-[1(S)-METHYL-2- OXO-2-AMINO)ETHYL]ACETAMIDO]- CARBOXAMIDE]: the 50% inhibitory concentration (IC50) (duplicates, read-out: IC50) is 12 µM. For the molecule `NC(=O)CNC(=O)c1cc2ccccc2cc1OCCCCNC(=O)[C@@H](N)Cc1ccc(Br)cc1` [Example 61, 3-[4-[[[1-OXO-2(S)-AMINO-3(4- BROMOPHENYL)]PROPYL]AMINO]- BUTOXY]-NAPHTHALENE-2-(N- ACETAMIDO)CARBOXAMIDE], the IC50 (duplicates, read-out: IC50) is 0.5 µM. For `NC(=O)CNC(=O)c1cc2ccccc2cc1OCc1cccc(NC(=O)[C@@H](N)Cc2ccc(O)cc2)c1` [Example 96, 3-[3-[[[1-OXO-2(S)-AMINO-3-(4- HYDROXYPHENYL)]PROPYL]AMINO]- BENZYLOXY]NAPHTHALENE-2-(N- ACETAMIDO)CARBOXAMIDE], for the setting “duplicates, read-out: IC50”, the IC50 is 7.1 µM. Consider `NC(=O)CNC(=O)c1cc2ccccc2cc1OCCCCNC(=O)[C@@H](N)Cc1ccc2ccccc2c1` [Example 13, 3-[4-[[2(S)-AMINO-3-(NAPTHYL-2-YL)-1- OXOPROPYL]AMINO]BUTOXY]- NAPHTHALENE-2-[N-(2- AMIDOMETHYL)]CARBOXAMIDE], for which the half-maximal inhibitory concentration (IC50) (duplicates, read-out: IC50) was determined as 0.45 µM.

As to `CNC(=O)[C@@H](Cc1cccc(C(=O)OC)c1)C(=O)NCCCCOc1cc2ccccc2cc1C(=O)NCC(N)=O` [Example 148, 3-[[4-[N-[1-OXO-2-(N-METHYLAMINO- CARBONYL)-3-[(3-(METHOXY- CARBONYL)PHENYL]]PROPYL]- AMINO]BUTOXY]-NAPHTHALENE-2- (N-ACETAMIDO)CARBOXAMIDE], under “duplicates, read-out: IC50”, the IC50 came to 203 µM. Same read-out and setting: with `NC(=O)C(Cc1ccccc1)NC(=O)c1cc2ccccc2cc1OCCCCNC(=O)[C@@H](N)Cc1ccc(O)cc1` (stereo partly drawn) [Example 10, 3-[4-[[2(S)-AMINO-3-(4-HYDROXY- PHENYL)-1-OXOPROPYL]AMINO]- BUTOXY]-NAPHTHALENE-2-[N- [(AMIDO)(BENZYL)METHYL]]- CARBOXAMIDE] the figure was at least 500 µM; with `NC(=O)CNC(=O)c1cc2ccccc2cc1OCCCCCNC(=O)[C@@H](N)Cc1ccc(O)cc1` [Example 94, 3-[5-[[[1-OXO-2(S)-AMINO-3-(4- HYDROXYPHENYL)]PROPYL]AMINO]- PENTOXY]NAPHTHALENE-2-(N- ACETAMIDO)CARBOXAMIDE], 6.6 µM. Same read-out and setting: with `NC(=O)CC[C@H](N)C(=O)NCCCCOc1cc2ccccc2cc1C(=O)NCC(N)=O` [Example 70, 3-[4-[[(1-OXO-2(S)-AMINO-4-AMINO- CARBONYL)BUTYL]AMINO]BUTOXY]- NAPHTHALENE-2-(N-ACETAMIDO)- CARBOXAMIDE] the figure was 370 µM; with `N#C/C(=C\c1ccc(O)cc1)C(=O)NCCCCOc1cc2ccccc2cc1C(=O)NCC(N)=O` [Example 149, 3-[[4-[N-[1-OXO-2-(CYANO)-3-(4- HYDROXYPHENYL)]PROPEN-2-YL]- AMINO] BUTOXY]-NAPHTHALENE-2- [N-ACETAMIDO]CARBOXAMIDE], 27 µM; with “3-[4-[[2(S)-AMINO-3-(4-HYDROXY- PHENYL)-1-OXOPROPYL]AMINO]- ETHOXY]-2-[N-ACETAMIDO]- NAPHTHALENECARBOXAMIDE [Example 23]”, 3.4 µM. On the same count and under the same terms, with “3-[[[2(S)-AMINO-3-(4-HYDROXY- PHENYL)-1-OXO]PROPYL]AMINO]- BUTOXY]NAPHTHALENE-2-[N- [(AMIDO)[2-(INDOL-3-YL)METHYL]- METHYL]CARBOXAMIDE [Example 29]” the figure was 60 µM. As for `NC(=O)CNC(=O)c1cc2ccccc2cc1OCCCCNC(=O)[C@@H](N)Cc1cccc2ccccc12` [Example 57, 3-[4-[[[2(S)-AMINO-3-(NAPHTH-1-YL)-1- OXO]PROPYL]AMINO]BUTOXY]- NAPHTHALENE-2-(N-ACETAMIDO)- CARBOXAMIDE], the IC50 (duplicates, read-out: IC50) came out at 0.37 µM. As for “3-[[[4-[[[1-OXO-2(S)-AMINO-3- HYDROXYPHENYL)]PROPYL]AMINO]- BUTYL]CARBONYL]AMINO]- NAPHTHALENE-2-ACETAMIDO)- CARBOXAMIDE [Example 91]”, under “duplicates, read-out: IC50”, the IC50 is 209 µM. Same read-out and setting: with `NC(=O)CNC(=O)c1cc2ccccc2cc1NC(=O)CCCCNC(=O)[C@@H](N)Cc1ccc(O)cc1` [Example 35, 3-[[[[[[2(S)-AMINO-3-(4-HYDROXY- PHENYL)-1-OXO]PROPYL]AMINO]- BUTYL]CARBONYL] AMINO]- NAPHTHALENE-2-(N- ACETAMIDO)CARBOXAMIDE] the figure was 209 µM; with `NC(=O)CNC(=O)c1cc2ccccc2cc1OCCCNC(=O)[C@@H](N)Cc1ccc(O)cc1` [Example 93, 3-[5-[[[1-OXO-2(S)-AMINO-3-(4- HYDROXYPHENYL)]PROPYL]AMINO]- PROPYLOXY]NAPHTHALENE-2-(N- ACETAMIDO)CARBOXAMIDE], 45 µM; with `CN(C)[C@@H](Cc1ccccc1)C(=O)NCCCCOc1cc2ccccc2cc1C(=O)NCC(N)=O` [Example 68], 50 µM.
